Measurements as given in US12466816B2, “Fused cyclic compound capable of degrading protein and use thereof” (Medshine Discovery Inc., priority 2019, dated 2025).

Legend:
Type in all cases: cell-based
[1] = tested on: U87-MG cells; assay: Drug synergism experiment with DNA damaging agents (CCK-8); conditions: 10 μM WX106, low concentrations of agent, 72 hours
Procedure: U87-MG cells were treated with WX106 and DNA damaging agents, temozolomide, cisplatin, and gemcitabine for 72 hours, respectively, and the proliferation level of cells was detected by CCK-8. Among them, the WX106 concentration was 10 μM, and the DNA damaging agent concentrations were 0.1 μM, 1 μM and 10 μM, respectively.

[2] = tested on: Hep3B cells; assay: Cell growth competition experiment with Poma (CCK-8); conditions: 1, 10 and 50 μM Poma with 10 μM WX106, 72 hours
Procedure: (§1) Principle: It is known that Poma is a compound that binds to CRBN, and Poma has no obvious inhibitory effect on adherent cells. If a compound depends on CRBN to inhibit cell growth, Poma's competitive binding to CRBN will definitely affect the cytotoxic effect of this compound. Cells were treated with 1, 10 and 50 μM of Poma and 10 μM of WX106 for 72 hours; cell viability was detected using the CCK-8 kit and cell survival rate was calculated [based on the formula], cell survival rate=[(As −Ab)/(Ac−Ab)]×100% (where As represents the absorbance of the experimental wells, Ac represents the absorbance of the control wells, and Ab represents the absorbance of the blank wells); finally, the effect of the competitive binding of Poma on the cytotoxicity of WX106 was calculated to determine whether the cytotoxicity of WX106 is dependent on CRBN. This step was applied to both SUN182 and Hep3B cells.

[3] = tested on: SNU182; assay: as above; conditions: 1, 10 and 50 μM Poma with 10 μM WX106, 72 hours
Procedure: as §1
CC885 was the positive control in this experiment and is known to kill tumor cells in a CRBN-dependent manner.

[4] = biological target: CRBN (Homo sapiens, UniProt Q96SW2); assay: Protein degradation competition experiment (CC885-induced GSPT1 degradation); design: endogenous in cells; host or cells: MOLT-4; conditions: MOLT-4 cells, co-treated with 10 nM CC885, 4 hours, Western blot
Procedure: MOLT-4 cells were co-treated with 0.1, 1 and 10 μM of WX106 and 10 nM of CC885 for 4 hours, and the protein level of GSPT1 was then detected by Western blot, with Poma (Pomalidomide, Selleck, S1567) acting as the positive control in the experiment. Cells were collected and denatured in protein loading buffer (50 mM Tris-HCL 2% SDS, 0.025% BPB, 1% β-mercaptoethanol, 10% glycerol) at 98° C. for 10 min. Proteins were separated by SDS-PAGE and transferred to a PVDF membrane (Millipore, IPVH00010), blocked with 5% skim milk (dissolved in TBST buffer), incubated with a primary antibody overnight at 4° C., and then incubated with a secondary antibody (Anti-rabbit IgG, HRP-linked Antibody, Cell Signaling, 7074S) at room temperature for 1 hour, and the bands on the membrane were detected by chemiluminescence (ECL chemiluminescence kit, Beyotime Biotechnology, P0018AM).

[5] = biological target: Wee1 (Homo sapiens, UniProt P30291); assay: Detection of compounds that degrade Wee1 protein (Western blot); design: endogenous in cells; host or cells: MOLT-4, U87-MG; conditions: MOLT-4 cells 10 μM 4 hours; U87-MG cells 1 μM 24 hours
Procedure: MOLT-4 cells were treated with 10 μM of the test compound for 4 hours and U87-MG cells were treated with 1 μM of the test compound for 24 hours, respectively. With GAPDH (Santa Cruz, sc-32233) as the internal reference protein, the protein level of Wee1 (Cell Signaling, 13084S) was detected using Western blot. Cells were collected, lysed with protein loading buffer (1M Tris-HCl, 10% SDS, 0.025% BPB), and denatured at 98° C. for 10 min before Western blot analysis. The main steps include: 1) Electrophoresis: The protein was separated by SDS-PAGE electrophoresis. During the electrophoresis, the voltage was adjusted to 80 v for about 30 min, and then the voltage was adjusted to 120 v until the bromophenol blue ran out of the gel. 2) Transfer to a membrane: the gel was stuck to a methanol-activated PVDF membrane using the method of wet transfer, and after the top and bottom layers were wrapped with filter paper, the membrane was placed into the gel holder cassette and fixed to the transfer tank, and transfer was performed at a constant current of 250 mA for 90 min; 3) Blocking: the PVDF membrane with trace protein was placed into the antibody incubation box, 5% skim milk was added to completely cover the PVDF membrane, and incubation was performed for 1 hour on a shaker at room temperature; 4) Incubation of the primary antibody: the primary antibody was prepared with 5% BSA (1:1000) and incubated overnight on a shaker at 4° C.; 5) Incubation of the secondary antibody: the membrane was washed thrice with TBST, the secondary antibody (prepared with 5% skim milk) was added (according to the species source of the primary antibody, different secondary antibodies with a dilution range of 1:3000-1:10000 were used), and incubation was performed on a shaker at room temperature for one hour; 5) Exposure: the membrane was washed thrice with TBST and the bands on the membrane were detected by chemiluminescence.

| SMILES | pro-degradation effect on Wee1 [5] | other results |
| --- | --- | --- |
| N.N.[Cl][Pt][Cl] [Cisplatin, cisplatin] |  | proliferation of U87-MG cells, DNA damaging agent at low concentrations in combination with WX106 [1]: significantly inhibit the proliferation of U87-MG cells |
| Nc1cccc2c1C(=O)N(C1CCC(=O)NC1=O)C2=O (stereo not shown) [Poma, Pomalidomide] |  | effect of Poma on the cytotoxicity caused by WX106 [2]: capable of competitively inhibiting the cytotoxicity caused by WX106; effect of Poma on the cytotoxicity caused by WX106 [3]: capable of competitively inhibiting the cytotoxicity caused by WX106; effect on degradation of GSPT1 induced by CC885 [4]: could inhibit the pro-degradation of GSPT1 by CC885 |
| O=C1CCC(c2coc3ccc(NC(=O)c4ccnc(C(F)(F)F)c4)cc23)C(=O)N1 (stereo not shown) [WX002] | pro-degradation effect on Wee1 |  |
| Cc1ccc(C(=O)Nc2ccc3occ(C4CCC(=O)NC4=O)c3c2)cc1 (stereo not shown) [WX003] | pro-degradation effect on Wee1 |  |
| O=C1CCC(c2coc3ccc(NC(=O)c4cccc(Cl)c4)cc23)C(=O)N1 (stereo not shown) [WX004] | pro-degradation effect on Wee1 |  |
| O=C1CCC(c2coc3ccc(NC(=O)c4ccccc4)cc23)C(=O)N1 (stereo not shown) [WX005] | pro-degradation effect on Wee1 |  |
| CCCC(=O)Nc1ccc2occ(C3CCC(=O)NC3=O)c2c1 (stereo not shown) [WX006] | pro-degradation effect on Wee1 |  |
| Nc1ccn([C@@H]2O[C@H](CO)[C@@H](O)C2(F)F)c(=O)n1 [gemcitabine] |  | proliferation of U87-MG cells, DNA damaging agent at low concentrations in combination with WX106 [1]: significantly inhibit the proliferation of U87-MG cells |
